Values after ≈ are worked out from the molar mass of the structure shown. Active and inactive are the calls of the source. No cut-off for these calls is given here.
Key:
Nucleic Acid [1] = experiment: Displacement of methyl green dye from DNA after 24 hrs by spectrophotometric analysis; format: nucleic-acid assay
Nucleic Acid [2] = experiment: Binding affinity to DNA using anisaldehyde reagent by TLC method; format: nucleic-acid assay
Mus musculus [3] = experiment: Toxicity in Swiss albino mouse xenografted with mouse EAC assessed as haemoglobin level at 20 mg/kg, ip (reference value: 13.4 per g%); format: organism-based; set-up: dose 20 mg/kg, route intraperitoneal; conditions: in vivo
[4] = Antitumor activity against mouse EAC cells xenografted in Swiss albino mouse assessed as increase in lifespan of organism at 20 mg/kg, ip administered 24 hrs post inoculation for 9 days; format: functional, Ehrlich; conditions: route intraperitoneal
Mus musculus [5] = experiment: Toxicity in Swiss albino mouse xenografted with mouse EAC assessed as RBC level at 20 mg/kg, ip (reference value: 5.1/10^6 mm-3); format: organism-based; set-up: dose 20 mg/kg, route intraperitoneal; conditions: in vivo
Mus musculus [6] = experiment: Toxicity in Swiss albino mouse xenografted with mouse EAC assessed as total WBC level at 20 mg/kg, ip (reference value: 4.35/10^3 mm3); format: organism-based; set-up: dose 20 mg/kg, route intraperitoneal; conditions: in vivo
Mus musculus [7] = experiment: Toxicity in Swiss albino mouse xenografted with mouse EAC assessed as ALT level at 20 mg/kg, ip (reference value: 3.7 u/L); format: organism-based; set-up: dose 20 mg/kg, route intraperitoneal; conditions: in vivo
Ehrlich [8] = experiment: Antitumor activity against mouse EAC cells xenografted in Swiss albino mouse assessed as reduction in viable tumor cells at 20 mg/kg, ip after 5 days using giemsa staining by microscopy; format: functional, organism-based; set-up: dose 20 mg/kg
Ehrlich [9] = experiment: Antitumor activity against mouse EAC cells xenografted in Swiss albino mouse assessed as reduction in viable tumor cells at 100 ug after 5 days using giemsa staining by microscopy; format: functional
[10] = Antitumor activity against mouse EAC cells xenografted in Swiss albino mouse assessed as increase in lifespan of organism at 100 ug administered 24 hrs post inoculation for 9 days; format: functional, Ehrlich
Mus musculus [11] = experiment: Toxicity in Swiss albino mouse xenografted with mouse EAC assessed as total WBC level at 100 ug (reference value: 4.35/10^3 mm3); format: organism-based; conditions: in vivo
Mus musculus [12] = experiment: Toxicity in Swiss albino mouse xenografted with mouse EAC assessed as ALT level at 100 ug (reference value: 3.7 u/L); format: organism-based; conditions: in vivo
Mus musculus [13] = experiment: Toxicity in Swiss albino mouse xenografted with mouse EAC assessed as haemoglobin level at 100 ug (reference value: 13.4 per g%); format: organism-based; conditions: in vivo
Mus musculus [14] = experiment: Toxicity in Swiss albino mouse xenografted with mouse EAC assessed as RBC level at 100 ug (reference value: 5.1/10^6 mm-3); format: organism-based; conditions: in vivo

| SMILES | IC50 (Nucleic Acid [1]) [µg/mL] | Activity (Nucleic Acid [2]) | also measured |
| --- | --- | --- | --- |
| CC[n+]1c(-c2ccccc2)c2cc(N)ccc2c2ccc(N)cc21.[Br-] [HOMIDIUM BROMIDE] | 1.4 |  |  |
| Cc1cc(=O)n2nc(S(N)(=O)=O)sc2n1 | 76 (≈ 309 µM) |  |  |
| Cc1nc2sc(S(N)(=O)=O)nn2c(=O)c1/N=N/c1ccc([N+](=O)[O-])cc1 | 81 (≈ 205 µM) | inactive |  |
| COc1ccc(C2C=C(c3ccc(N)cc3)N=C3SC(S(N)(=O)=O)=NN32)cc1 (centres undefined) | 81 (≈ 195 µM) | inactive |  |
| Cc1nc2sc(S(N)(=O)=O)nn2c(=O)c1/N=N/c1ccc(Cl)cc1 | 74 (≈ 192 µM) |  |  |
| NS(=O)(=O)c1nn2c(=O)ccnc2s1 | 70 (≈ 301 µM) |  |  |
| Cc1nc2sc(S(N)(=O)=O)nn2c(=O)c1/N=N/c1ccccc1 | 77 (≈ 220 µM) |  |  |
| O=c1[nH]cc(F)c(=O)[nH]1 [FLUOROURACIL] |  |  | Activity (Mus musculus [3]): 15.6%; Activity [4]: 42.86%; Activity (Mus musculus [5]): 5.87%; Activity (Mus musculus [6]): 14.7%; Activity (Mus musculus [7]): 6.9%; Activity (Ehrlich [8]): Active |
| NS(=O)(=O)C1=NN2C(=NC(c3ccccc3)=CC2c2ccc(Cl)cc2)S1 (centres undefined) | 40 (≈ 98.8 µM) | Active | Activity (Ehrlich [9]): Active; Activity [10]: 42.86% |
| Cc1cccc(C2=CC(c3ccccc3)N3N=C(S(N)(=O)=O)SC3=N2)c1 (centres undefined) | 72 (≈ 187 µM) |  |  |
| COc1ccc(C2C=C(c3ccccc3)N=C3SC(S(N)(=O)=O)=NN32)cc1OC (centres undefined) | 62 (≈ 144 µM) | Active | Activity (Ehrlich [9]): Active; Activity [10]: 57.14% |
| NS(=O)(=O)C1=NN2C(=NC(c3ccccc3)=CC2c2ccc([N+](=O)[O-])cc2)S1 (centres undefined) | 81 (≈ 195 µM) | inactive |  |
| Cc1nc2sc(S(N)(=O)=O)nn2c(=O)c1/N=N/c1ccc(Br)cc1 | 74 (≈ 172 µM) |  |  |
| NS(=O)(=O)c1nn2c(=O)cc(C(=O)NNc3ccccc3)nc2s1 | 81 (≈ 221 µM) | inactive |  |
| COc1ccc(/N=N/c2c(C)nc3sc(S(N)(=O)=O)nn3c2=O)cc1 | 81 (≈ 213 µM) | inactive |  |
| NS(=O)(=O)c1nn2c(=O)cc(Cl)nc2s1 | 79 (≈ 296 µM) |  |  |
| N=C1CC(=O)N=C2SC(S([NH-])(=O)=O)=NN12.[Na+] | 76 |  |  |
| Nc1ccc(C2=CC(c3ccc(Cl)cc3)N3N=C(S(N)(=O)=O)SC3=N2)cc1 (centres undefined) | 64 (≈ 152 µM) | Active | Activity (Mus musculus [11]): 9.45%; Activity (Mus musculus [12]): 6.7%; Activity (Ehrlich [9]): Active; Activity (Mus musculus [13]): 11.1%; Activity (Mus musculus [14]): 5.96%; Activity [10]: 71.43% |
| NS(=O)(=O)C1=NN2C(=NC(c3ccccc3)=CC2c2cc([N+](=O)[O-])ccc2Cl)S1 (centres undefined) | 80 (≈ 178 µM) |  |  |
| Cc1ccc(/N=N/c2c(C)nc3sc(S(N)(=O)=O)nn3c2=O)cc1 | 81 (≈ 222 µM) | inactive |  |

Source: ChEMBL document CHEMBL1821630, “Synthesis and antitumor activity of new sulfonamide derivatives of thiadiazolo[3,2-a]pyrimidines” (Eur J Med Chem, 2011)
